According to patent US6982082B1, “Gene therapy by cell specific targeting” (President and Fellows of Harvard College, priority 1996, dated 2006):
Blank lines part the entries; values can stand above or below the compound they belong to.

How the values were obtained:
[1] = system: NFAT signaling in Jurkat cells, NFAT-SEAP alone (endogenous cyclophilins); assay: cellular NFAT-signaling assay, Jurkat cells transfected with NFAT-SEAP alone; format: cell-based
Experimental: (§1) FIG. 1 is a graph showing the cellular assay for calcineurin-mediated NFAT-signalling.
(§2) CypA and mutants were sub-cloned from pGEX based expression vectors into pBJ5, a eukaryotic expression vector containing an N-terminal FLAG epitope tag. The signaling assay was performed as previously described in Belshaw, P. J., Spencer, D. M., Crabtree, G. R. & Schreiber, S. L., Chemistry & Biology, 3:731–8 (1996). Briefly 10^7 Jurkat cells were electroporated with NFAT-SEAP reporter plasmid (1 μg) alone or in combination with a Cyp expression vector (5 μg). After 20 hours, cells were stimulated in 96 well plates with phorbol ester (PMA)(50 ng/mL) and ionomycin (1 μM), which mimics T cell activation and receptor signaling. […] Twenty-four hours later, cells were assayed for SEAP activity.

[2] = system: NFAT signaling in cells expressing CypA (S99T, F113A) (CypAat); assay: cellular NFAT-signaling assay, cells expressing CypAat; format: cell-based
Experimental: as §2, with “activity. The data for each transfection are presented as percent SEAP activity relative to the signal for [CpSar11-CsA]=0.” for “activity.”
Presumably this was due to formation of endogenous Cyp-MeIle11-CsA complexes that inhibited Cn.

[3] = system: NFAT signaling in Jurkat cells, CypA wild type + NFAT-SEAP; assay: cellular NFAT-signaling assay (NFAT-SEAP reporter), Jurkat cells coexpressing wild type CypA; format: cell-based
From the text: as §1
(§3) Since it is the composite surface of Cyp-CsA that binds to and thereby inhibits the phosphatase activity of Cn and as the modifications to both the receptor and ligand were expected to be buried in the complex, it was expected that these new receptor-ligand combinations would have the ability to inhibit calcineurin (Cn) and thus NFAT mediated gene activation. This hypothesis was confirmed by using a cellular assay in which NFAT-signaling was measured on a reporter gene, as described below.
as §2, with “activity. The data for each transfection are presented as percent SEAP activity relative to the signal for [CpSar11-CsA]=0.” for “activity.”

[4] = target: T1, CypA (S99T, F113G, C115M) (CypAgtm) (Homo sapiens, UniProt P62937, C115M/F113G/S99T); assay: direct fluorescence binding assay, modified CypA
T1 construct: made in house; host or cells: E. coli
Experimental: (§4) To determine CpSar11-CsA's binding characteristics, both the unmodified CypA and the modified CypA (S99T, F113G, C115M) (CypAgtm) was overexpressed in E. coli and purified according to standard techniques. The binding constants for CpSar11-CsA for each receptor was determined with a direct fluorescence binding assay according to the procedure described in Belshaw, P. J., Schoepher, J. G., Lui, K-Q., Morrison, K. L. & Schreiber, S. L., Angew Chem. Int. Ed. Engl. 34:2129–32 (1995).
(§5) Kds were determined using a direct fluorescence binding assay as previously described in Belshaw et al., supra.

[5] = target: T2, CypA wild type (Homo sapiens, UniProt P62937); assay: direct fluorescence binding assay, wild type CypA; conditions: in words
T2 construct: made in house; host or cells: E. coli
Experimental: as §4, §5

[6] = system: NFAT signaling in Jurkat cells, CypAgtm + NFAT-SEAP; assay: cellular NFAT-signaling assay (NFAT-SEAP reporter), Jurkat cells expressing CypAgtm; format: cell-based
From the text: as §1, §3
as §2, with “activity. The data for each transfection are presented as percent SEAP activity relative to the signal for [CpSar11-CsA]=0.” for “activity.”

[7] = target: FKBP (Homo sapiens, UniProt P62942); assay: binding to FKBP, same assay; conditions: in words
[8] = target: FKBP12 F36V (FKBP^t−) (Homo sapiens, UniProt P62942, F37V); assay: Scatchard analysis of binding of radiolabeled protein to FKBP^t−
[9] = system: signaling in cells without FKBP containing the compensatory mutation; assay: signaling in cells not transfected with compensatory FKBP; format: cell-based

FKBP12 F36V (FKBP^t−), sequence (P62942 whole entry F37V): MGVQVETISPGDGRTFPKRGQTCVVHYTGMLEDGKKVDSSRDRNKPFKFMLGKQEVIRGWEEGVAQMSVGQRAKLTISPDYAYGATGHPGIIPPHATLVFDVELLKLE
T1 sequence (P62937 whole entry S99T/F113G/C115M): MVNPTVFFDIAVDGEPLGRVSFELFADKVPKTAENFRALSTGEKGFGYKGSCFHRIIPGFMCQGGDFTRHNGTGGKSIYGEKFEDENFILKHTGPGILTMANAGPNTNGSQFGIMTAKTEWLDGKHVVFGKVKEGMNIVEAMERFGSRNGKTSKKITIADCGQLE
FKBP, sequence (P62942 whole entry): as the sequence (P62942 whole entry F37V) above, with V37F counted along it
T2 sequence (P62937 whole entry): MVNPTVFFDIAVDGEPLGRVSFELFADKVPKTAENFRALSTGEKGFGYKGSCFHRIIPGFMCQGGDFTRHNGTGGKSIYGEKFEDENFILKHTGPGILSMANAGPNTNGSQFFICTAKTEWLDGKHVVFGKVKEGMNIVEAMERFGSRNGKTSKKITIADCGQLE

Compound: MeIle11-CsA
inhibition of NFAT signaling ([1]; cells transfected with the NFAT reporter gene alone (data not shown)): still inhibited NFAT signaling | inhibition of NFAT signaling [2]: potently inhibited NFAT signaling

IC50 ([3]; CypA wild type + NFAT-SEAP, PMA and ionomycin stimulation, read-out: IC50 in Cellular NFAT-Signalling): > 400 nM | Kd ([4]; CypAgtm, read-out: Binding Constant Kd): 9 nM | affinity for CypAgtm ([4]; in words): high affinity | affinity for wild type CypA [5]: little affinity | IC50 ([6]; CypAgtm + NFAT-SEAP, PMA and ionomycin stimulation, read-out: IC50 in Cellular NFAT-Signalling): 25 nM
Compound: C/C=C/C[C@@H](C)[C@@H](O)[C@H]1C(=O)N[C@@H](CC)C(=O)N(C)CC(=O)N(C)[C@@H](CC(C)C)C(=O)N[C@@H](C(C)C)C(=O)N(C)[C@@H](CC(C)C)C(=O)N[C@@H](C)C(=O)N[C@H](C)C(=O)N(C)[C@@H](CC(C)C)C(=O)N(C)[C@@H](CC(C)C)C(=O)N(C)[C@@H](C2CCCC2)C(=O)N1C [CpSar11-CsA, alpha-cyclopentyl, sarcosine11-CsA]
effect on reporter gene expression ([1]; concentrations up to 400 nM, cells expressing endogenous cyclophilins alone): little or no effect | effect on reporter gene expression ([3]; concentrations up to 400 nM, cells coexpressing a wild type cyclophilin): little or no effect | inhibition of NFAT signaling ([6]; cells expressing CypAgtm): potently inhibited NFAT signaling

Compound: 9-S-methoxy-FK506
binding to endogenous FKBP [7]: does not bind | Kd ([8]; Scatchard analysis): 5 nM | binding to FKBP12F36V ([8]; in words): does bind | effect on signaling [9]: no effect on signaling
